From patent US20050025727A1, “Natural sunlight photostable composition” (priority 2003, published 2005)

Experiment: Photostability in natural sunlight: residual sunscreen active by HPLC, 2 mg/cm^2 film on microscope slides
Assay type: physicochemical
Conditions: for Residual Octisalate, Residual %: natural sunlight as in Example 1, formula not named (context: Formula 5)
Protocol: As described above, a sunscreen composition of SPF X is considered to be “photostable” when at least 70%, preferably at least 75%, more preferably at least 80% of each sunscreen active in the composition remains after exposure of the composition to Y SEDS of natural sunlight, where Y is about ½ X. “Photostability” is assessed by (i) assaying the pre-UVR exposure concentration of each sunscreen active present in the sunscreen composition by high-performance liquid chromatography (“HPLC”); (ii) applying a sample of the sunscreen composition at a concentration of 2 mg/cm^2 (a standard concentration used in SPF testing) to a non-coated microscope slide or similar non-reactive surface (e.g., glass or quartz plate); (iii) irradiating the sample in natural sunlight according to a dosing regimen as illustrated in Table 1; (iv) assaying the concentration of each sunscreen active post-UVR exposure. More specifically, after the desired UVR exposure, each slide is removed from sunlight and placed in a sealed Blue Max™ polypropylene conical tube (Becton Dickinson) or similar container, and stored in an area to prevent further exposure to natural sunlight. When an irradiation series is completed, the residual content of each sunscreen active is determined via HPLC, such as the Perkin Elmer Model 200, equipped with a 785 UVN detector, and a C18 column. A detector wavelength of 310 nm and an eluent solution of […] may be used. The sunscreen composition is extracted from the slide with isopropanol or other suitable solvent and sonicated for a minimum of 10 minutes to completely solubilize the sunscreen actives. The solution is then filtered with a 0.45 um GHP13 mm syringe filter. The above analytical procedure may be modified in a manner that would be obvious to the person of ordinary skill in the art. To compare the photostability of Formulas 1 and 2, a uniform 2 mg/cm^2 film of sunscreen product was placed on multiple microscope slides. The slides were exposed to direct sunlight for time intervals corresponding to 1, 2, 4, 8, and 16 SEDs as measured by a Solar Light PMA 2100 detector. (Unless otherwise indicated, all sunlight exposures were in Ormond Beach, Fla.). Slides were removed from the sun after the desired exposure and stored in Blue Max™ polypropylene conical tubes. Upon completion of the test series, samples were dissolved in a suitable solvent, sonicated and then assayed via HPLC. Unless otherwise indicated, all assays were performed by HPLC with oxybenzone, if present, as the internal standard.

- Photostability of octisalate (exposed to natural sunlight as in Example 1): photolabile
- Residual Octisalate, Residual % (1 SED): 96%
- Residual Octisalate, Residual % (2 SEDs): 100%
- Residual Octisalate, Residual % (4 SEDs): 92%
- Residual Octisalate, Residual % (8 SEDs): 80%
- Residual Octisalate, Residual % (16 SEDs): 55%
SMILES: CCCCC(CC)COC(=O)c1ccccc1O (stereo not drawn) [Octisalate]
